Results on 2 compounds are retold here after patent publication US8685462B1, “Whole, leech saliva product and applications thereof” (priority 2012, dated 2014).

The subject of assay [1] is Cryptococcus neoformans ATCC90112. Kind of assay: Kirby-Bauer disc diffusion. As to conditions: reference antibiotic disc, 100 unit. For orientation: A growth-free zone around the sample is the usual read-out of agar diffusion tests.
For assay [2], the system named is Candida albicans ATCC10231. In words: Kirby-Bauer disc diffusion. The following applies: reference antibiotic disc, 100 unit.
In another assay the test system is induced-diabetic rats. Kind of assay: Antihyperglycemic activity: fasting blood glucose in alloxan-induced diabetic rats. In kind it is in vivo, rat.

On to `C[C@@H]1[C@H](O)[C@@H](C)/C=C/C=C/CC/C=C/C=C/C=C/C=C/C(O[C@H]2O[C@H](C)[C@@H](O)[C@H](N)[C@@H]2O)CC2O[C@](O)(CC(O)C(O)CCC(O)CC(O)CC(O)CC(=O)O[C@H]1C)CC(O)C2C(=O)O` (some centres unmarked) [Nystatin, nystatin], for which the Zone of inhibition in assay [1] was determined as 9 mm; in assay [2] it was 10 mm.

With “insulin: insulin from bovine pancreas (≧27 units/mg), suspension in distilled water”, in the assay on induced-diabetic rats (diabetic rats, s.c., two hours), the “FBG after two hours of injection” value is on record as “sharp significant decrease”. For the same compound, in the assay with induced-diabetic rats (either dose), the “difference between normal rats and treated diabetic rats” value was “No significant difference”. Besides, the “FBG after 8 hours of treatment” value in the assay on induced-diabetic rats (lower dose of insulin (10 units/kg b.w)) is reported as “returned to the diabetic state”.
